Among the data in US10647680B2, “Urea compound, preparation method therefor and medical use thereof” (Ancureall Pharmaceutical (Shanghai) Co., Ltd., priority 2016, dated 2020) are efflux ratio, Papp A→B and Papp B→A values, retold here.

A word on the Papp A→B: it is how fast a substance crosses the layer from the apical side. What is called Papp B→A is how fast a substance crosses the layer from the basolateral side.

Where two headings read alike, the source gives them in different places.

One data set concerns P-gp. Briefly: Bidirectional transmembrane transport and P-gp efflux in Caco-2 monolayer cell model. The settings on record: human, Caco-2, pH 7.4; Concentration 10, Inhibitor − (without P-gp inhibitor GF120918); read-out: Efflux Ratio Papp (B→A)/Papp (A→B). In kind it is in vitro ADME. The protocol: (§1) The Caco-2 cell transport experiment was performed using compound 77 of the present invention as a representative example.
(§2) Main procedure: Caco-2 cells (ATCC, HTB-37) were cultured in high-glucose DMEM culture medium (Hyclone) containing 10% fetal calf serum (GIBCO) and penicillin-streptomycin (100 units/mL each) (Sigma). Cells were cultured at 37° C. in an incubator containing 5% CO2. In the transport experiment, Caco-2 cells were inoculated on a filter of a 12-well Transwell plate at a density of 2×10^5 cells/well (Coming Costar, catalog #3401, 1.12 cm^2, 0.4 um of pore size). After inoculation, the Caco-2 cells would form intact cell monolayers after 21 days, including P-gp efflux transporter expression and transepithelial cell resistance (TEER) formation. During the period, the culture medium was replaced once every other day. The volume of culture medium at the transwell membrane Apical Side (A) and Basolateral Side (B) were 0.5 mL and 1.5 mL, respectively. Before the transport experiment (day 21), the preheated HBSS buffer (137 mM NaCl, 4.17 mM NaHCO3, 0.34 mM Na2HPO4, 5.37 mM KCl, 0.44 mM KH2PO4, 1.26 mM CaCl2, 0.49 mM MgCl2, 0.41 mM MgSO4, 5.55 Mm D-Glucose, 10 mM HEPES, pH 7.4) was used firstly to wash Caco-2 cell monolayers for three times, and placed to at 37° C. for incubation for 30 minutes, then TEER values were determined using a cell resistometer (Millicell-ERS2) to confirm the integrity and compactness of the cell monolayers. When the HBSS buffer solution on the transmembrane A-side or B-side was replaced with the test compound, the transport experiment was started.
(§3) Finally, after incubation at 37° C. for 2 hours, the transport experiment was terminated and 50 uL of sample solution was taken from both sides of the Transwell filter membrane separately and added to 100 μL of acetonitrile comprising internal standard compound and mixed well, then centrifuged at 13000 rpm, 4° C. for 10 min, and finally 10 μL (or a specific volume) of supernatant was used for LC-MS/MS sample analysis.
(§4) For each compound, transport experiments in the A-B and B-A directions had three replicates, i.e. n=3.
(§5) LC-MS/MS Sample Analysis: The high performance liquid chromatography (HPLC) system used in this research consisted of two pumps (Shimadzu LC-20AD) and an autosampler (Shimadzu SIL-20AC). The HPLC system was connected in series with an API 4000 triple quadrupole mass spectrometer (Applied Biosystems). The API 4000 triple quadrupole mass spectrometer was equipped with an electrospray ionization (ESI) source. Ultrapurified nitrogen was used as curtain gas, GAS1, GAS2, and collision gas, at flow rates of 20 L/h, 55 L/h, 65 L/h, and 6 L/hr, respectively. The atomization temperature of the ion source was set to 500° C. Data was collected using the software Analyst 1.5.
(§6) Data analysis: The apparent permeability coefficient (Papp) can be calculated by the rate at which a compound permeates the monolayer of Caco-2 cells. Its value is related to the absorption of the compound in vivo. After concentrations at A side and B side were determined by LC-MS/MS, the Papp value in the A-B or B-A direction was calculated according to the following formula: Papp(A→B) or Papp(B→A)=(dQ/dt)/(A*C0)=(C2h*V)/(t*π2*C0)
(§7) In the above formula, dQ/dt is the permeation rate, i.e. the amount of compound that permeated in the dt time, C0 is the initial concentration of drug on the administration side, and A is the surface area of the cell monolayer, i.e. the membrane area.
(§8) After obtaining the Papp (A→B) and Papp (B→A) values of the compound, the Efflux Ratio (ER) of the compound could be calculated by the following formula: Efflux Ratio(ER)=Papp(B−A)/Papp(A−B).
(§9) When the ratio of efflux was >2, the compound could be considered as the substrate of the efflux transporter.

Assay in data set [1]: as above
The settings on record: human. The class given is in vitro ADME. The protocol:
as §1, §2, §3, §4, §5, §6, §7, §8, §9

In the case of `C[C@H]1O[C@@H](O[C@H]2[C@@H](O)C[C@H](O[C@H]3[C@@H](O)C[C@H](O[C@H]4CC[C@@]5(C)[C@H](CC[C@@H]6[C@@H]5C[C@@H](O)[C@]5(C)[C@@H](C7=CC(=O)OC7)CC[C@]65O)C4)O[C@@H]3C)O[C@@H]2C)C[C@H](O)[C@@H]1O` [Digoxin], the efflux ratio at 2 h with P-gp was 322. The Papp A→B at 2 h in data set [1] (Caco-2, pH 7.4, Caco-2 monolayer cell model, transmembrane permeability, read-out: Papp(A→B) value (conclusions under the table)) was < 1 ×10⁻⁶ cm/s; in data set [1] (Caco-2, pH 7.4, Concentration 10, Inhibitor − (without P-gp inhibitor GF120918), read-out: Papp (A→B)), 0.06 ×10⁻⁶ cm/s. In data set [1] (Caco-2, pH 7.4, Concentration 10, Inhibitor − (without P-gp inhibitor GF120918)), this compound gave a Papp B→A at 2 h of 20.4 ×10⁻⁶ cm/s.
